# Source: patent US12077503B2, “Substituted cyclic amides and their use as herbicides” (FMC CORPORATION, priority 2015, dated 2024)
# Columns and labels:
# Format in all cases: in vivo
# Kochia (Kochia scoparia) [1] = assay: Test A postemergence; details: Bassia scoparia, post-emergence, 240 h, read-out: Kochia plant response rating (0 to 100 scale)
# How it was run: (§1)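 Seeds sprayed preemergence with a directed soil spray, or plants at 2 to 10 cm height and one- to two-leaf stage sprayed postemergence, with test chemicals in a non-phytotoxic solvent mixture containing surfactant, in loam soil–sand blend. Injury rated visually against untreated controls after about 10 d in greenhouse, 0 (no effect) to 100 (complete control).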
# [2] = system: ryegrass, Italian (Italian ryegrass, Lolium multiflorum); assay: Test A postemergence; details: Lolium multiflorum, post-emergence, 240 h, read-out: Ryegrass, Italian plant response rating (0 to 100 scale)
# How it was run: as §1
# [3] = system: ragweed (common ragweed, Ambrosia elatior); assay: Test A postemergence; details: Ambrosia artemisiifolia, post-emergence, 240 h, read-out: Ragweed plant response rating (0 to 100 scale)
# How it was run: as §1
# [4] = system: Galium (catchweed bedstraw, Galium aparine); assay: Test A postemergence; details: Galium, post-emergence, 240 h, read-out: Galium plant response rating (0 to 100 scale)
# How it was run: as §1
# [5] = system: barnyardgrass (Echinochloa crus-galli); assay: Test A postemergence; details: Echinochloa crus-galli, post-emergence, 240 h, read-out: Barnyardgrass plant response rating (0 to 100 scale)
# How it was run: as §1
# corn (Zea mays) = assay: Test A postemergence; details: Zea mays, post-emergence, 240 h, read-out: Corn plant response rating (0 to 100 scale)
# How it was run: as §1
# [6] = system: wheat (Triticum aestivum); assay: Test A postemergence; details: Triticum aestivum, post-emergence, 240 h, Postemergence, 31 g ai/ha; 0 is no effect, 100 is complete control; read-out: Wheat plant response rating (0 to 100 scale)
# How it was run: as §1
# [7] = system: giant foxtail (Setaria faberii); assay: Test A postemergence; details: Setaria faberi, post-emergence, 240 h, read-out: Foxtail, Giant plant response rating (0 to 100 scale)
# How it was run: as §1
# [8] = system: pigweed (Amaranthus retroflexus); assay: Test A postemergence; details: Amaranthus retroflexus, post-emergence, 240 h, read-out: Pigweed plant response rating (0 to 100 scale)
# How it was run: as §1
# [9] = system: blackgrass (Alopecurus myosuroides); assay: Test A postemergence; details: Alopecurus myosuroides, post-emergence, 240 h, read-out: Blackgrass plant response rating (0 to 100 scale)
# How it was run: as §1
# [10] = system: sedge, umbrella (small-flower umbrella sedge, Cyperus difformis); assay: Test B flooded paddy test; details: Cyperus difformis, 250 g ai/ha, Flood; 0 to 100 scale where 0 is no effect and 100 is complete control; read-out: Sedge, Umbrella plant response rating
# How it was run: (§2)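 Greenhouse paddy pots with 2-leaf stage plants received compound by direct addition to floodwater 3 cm deep, kept at that level. Scored visually at 13–15 d versus controls (0 no effect; 100 complete control).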
# rice (Oryra sativa) = assay: Test B flooded paddy test; details: Oryza sativa, 250 g ai/ha, Flood; 0 to 100 scale where 0 is no effect and 100 is complete control; read-out: Rice plant response rating
# How it was run: as §2
# [11] = system: ducksalad (Heteranthera limosa); assay: Test B flooded paddy test; details: Heteranthera limosa, 250 g ai/ha, Flood; 0 to 100 scale where 0 is no effect and 100 is complete control; read-out: Ducksalad plant response rating
# How it was run: as §2
# [12] = system: barnyardgrass (Echinochloa crus-galli); assay: Test B flooded paddy test; details: Echinochloa crus-galli, 250 g ai/ha, Flood; 0 to 100 scale where 0 is no effect and 100 is complete control; read-out: Barnyardgrass plant response rating
# How it was run: as §2
# Kochia (Kochia scoparia) [13] = assay: Test A preemergence; details: Bassia scoparia, pre-emergence, 240 h, 0 to 100 scale where 0 is no effect and 100 is complete control, read-out: Kochia plant response rating
# How it was run: as §1
# [14] = system: ryegrass, Italian (Italian ryegrass, Lolium multiflorum); assay: Test A preemergence; details: Lolium multiflorum, pre-emergence, 240 h, 0 to 100 scale where 0 is no effect and 100 is complete control, read-out: Ryegrass, Italian plant response rating
# How it was run: as §1
# [15] = system: ragweed (common ragweed, Ambrosia elatior); assay: Test A preemergence; details: Ambrosia artemisiifolia, pre-emergence, 240 h, 0 to 100 scale where 0 is no effect and 100 is complete control, read-out: Ragweed plant response rating
# How it was run: as §1
# [16] = system: barnyardgrass (Echinochloa crus-galli); assay: Test A preemergence; details: Echinochloa crus-galli, pre-emergence, 240 h, 0 to 100 scale where 0 is no effect and 100 is complete control, read-out: Barnyardgrass plant response rating
# How it was run: as §1
# [17] = system: giant foxtail (Setaria faberii); assay: Test A preemergence; details: Setaria faberi, pre-emergence, 240 h, 0 to 100 scale where 0 is no effect and 100 is complete control, read-out: Foxtail, Giant plant response rating
# How it was run: as §1
# [18] = system: pigweed (Amaranthus retroflexus); assay: Test A preemergence; details: Amaranthus retroflexus, pre-emergence, 240 h, 0 to 100 scale where 0 is no effect and 100 is complete control, read-out: Pigweed plant response rating
# [19] = 125 g ai/ha, postemergence, visual injury vs untreated controls after approx. 10 d, 0 = no effect, 100 = complete control
# [20] = Postemergence, 31 g ai/ha, 0 is no effect, 100 is complete control
# [21] = 125 g ai/ha, preemergence, visual injury rating, approximately 10 d
smiles,measurement,setting,value
CN1C[C@H](c2ccc(Cl)c(F)c2)[C@@H](C(=O)Nc2ccc(F)c(F)c2F)C1=O [Compound 1266],pest or weed control at 125 g/ha,Kochia (Kochia scoparia) [1]; [19],70%
same,pest or weed control at 31 g/ha,Kochia (Kochia scoparia) [1]; [20],30%
same,pest or weed control at 125 g/ha,[2]; [19],70%
same,pest or weed control at 31 g/ha,[2]; [20],20%
same,pest or weed control at 125 g/ha,[3]; [19],50%
same,pest or weed control at 31 g/ha,[3]; [20],0%
same,pest or weed control at 125 g/ha,[4]; [19],60%
same,pest or weed control at 31 g/ha,[4]; [20],50%
same,pest or weed control at 125 g/ha,[5]; [19],90%
same,pest or weed control at 31 g/ha,[5]; [20],90%
same,plant injury at 125 g/ha,corn (Zea mays); [19],90%
same,plant injury at 31 g/ha,corn (Zea mays); [20],90%
same,plant injury at 31 g/ha,[6],0%
same,pest or weed control at 125 g/ha,[7]; [19],80%
same,pest or weed control at 31 g/ha,[7]; [20],80%
same,pest or weed control at 125 g/ha,[8]; [19],70%
same,pest or weed control at 31 g/ha,[8]; [20],20%
same,pest or weed control at 125 g/ha,[9]; [19],60%
same,pest or weed control at 31 g/ha,[9]; [20],20%
same,pest or weed control at 250 g/ha,[10],0%
same,pest or weed control at 250 g/ha,rice (Oryra sativa),50%
same,pest or weed control at 250 g/ha,[11],100%
same,pest or weed control at 250 g/ha,[12],60%
same,pest or weed control at 31 g/ha,"Kochia (Kochia scoparia) [13]; 31 g ai/ha, Preemergence",40%
same,pest or weed control at 125 g/ha,Kochia (Kochia scoparia) [13]; [21],80%
same,pest or weed control at 31 g/ha,"[14]; 31 g ai/ha, Preemergence",0%
same,pest or weed control at 125 g/ha,[14]; [21],40%
same,pest or weed control at 31 g/ha,"[15]; 31 g ai/ha, Preemergence",20%
same,pest or weed control at 125 g/ha,[15]; [21],60%
same,pest or weed control at 31 g/ha,"[16]; 31 g ai/ha, Preemergence",80%
same,pest or weed control at 125 g/ha,[16]; [21],90%
same,pest or weed control at 31 g/ha,"[17]; 31 g ai/ha, Preemergence",90%
same,pest or weed control at 125 g/ha,[17]; [21],90%
same,pest or weed control at 31 g/ha,"[18]; 31 g ai/ha, Preemergence",20%
same,pest or weed control at 125 g/ha,[18]; [21],80%
